Data reported in patent US20030188756A1, “Treatment of inflammatory bowel disease with vitamin d compounds” (priority 2002, published 2003).

Assays:
Assay type in all cases: in vivo
[1] = test system: IL-10 KO mice; test: 1,25(OH)2D3 supplementation (0.005 μg/d, 4 weeks) of vitamin D deficient IL-10 KO mice, IBD symptoms
From the text: (§1) MICE. Age and sex matched C57BL/6 IL-10 KO, and wildtype (WT) mice were produced in the Pennsylvania State University breeding colony; the breeding pairs were obtained from Jackson Laboratory (Bar Harbor, Me.). The animal facilities at the Pennsylvania State University are specific pathogen free and therefore breeding IL-10 KO mice was successful. All of the procedures described were reviewed and approved by the Pennsylvania State University Institutional Animal Care and Use Committee on Jan. 25, 1999, IACUC# number: 98118-A0.
(§2) DIETS. From a single pool of breeding females fed commercial mouse diet (#5105 Ralston Purina Co.), females in the second week of gestation were selected and randomly distributed into two groups. Starting pregnant dams on vitamin D deficient diet ensured that by 5 weeks of age the weanlings were vitamin D deficient (Cantorna et al. 1996). All mice were fed synthetic diets made in the laboratory (Yang et al. 1993; modification of Smith et al. 1987). The mice were vitamin D deficient, vitamin D sufficient or 1,25-dihydroxycholecalciferol supplemented. Mice were housed under yellow light to prevent the synthesis of vitamin D in skin. All of the mice were vitamin D deficient until weaning.
(§3) The 3 week old vitamin D deficient mice were randomly assigned to various treatment groups as described below. […] Experimental diets were prepared fresh and replaced every 2-3 days during the experiment. To ensure that 1,25-dihydroxycholecalciferol (1,25(OH)2D3) treated mice ate all of the 1,25(OH)2D3 provided, food cups containing 8 g of diet were replaced every other day (completely eaten) for the duration of each experiment (Cantorna et al. 1996, Cantorna et al. 1998a). In order to monitor vitamin D toxicity, 1,25(OH)2D3 supplemented mice were observed daily for signs of hypercalcemia. Symptoms of hypercalcemia monitored daily included overall health and weight loss.
In the 2nd series of experiments 3 week old vitamin D deficient mice were split into 2 groups. One group of mice was maintained on the vitamin D deficient diet and the other group was supplemented with 0.005 μg/d 1,25(OH)2D3. The vitamin D deficient and 1,25(OH)2D3 supplemented mice were sacrificed 4 weeks later at […].
SERUM MEASUREMENTS. Mice were bled at 5 weeks of age and at the end of the experiments to measure hemoglobin, calcium, and red blood cell numbers. Serum was collected every 2 weeks and serum calcium measured (normal for mice is 2.00-2.75 mmol/L). Vitamin D deficiency was also monitored by serum calcium analysis (serum calcium less then 1.75 mmol/L). Calcium (587-A) and hemoglobin (525-A) colorometric kits were from Sigma Chemical Co. (St. Louis, Mo.). Red blood cells were counted using a hemocytometer.
(§4) IBD SEVERITY. Mortality associated with the development of diarrhea was recorded in IL-10 KO and WT mice. In addition the small intestines (SI) were removed and weighed. The jejunum of the […] KO mice is visibly inflamed and has been used by others to monitor symptoms of IBD in mice (Kuhns et al. 1993). The jejunum of the SI was saved in 100 g/L formalin in phosphate buffered saline solution and sent to the Penn State Diagnostic Laboratory for sectioning and staining with hematoxyalin and eosin. Four or more paraffin sections (4 microns) from each mouse were scored using the exact procedure described by Kuhns et. al (1993). The sections were scored blindly on a scale of 0 to 5 for inflammation. […]

[2] = test system: WT mice; test: 1,25(OH)2D3 supplementation (0.005 μg/d, 4 weeks) of vitamin D deficient WT mice; conditions: 0.005 μg/day 1,25(OH)2D3 for 4 weeks, mean ± SEM
From the text: as §1
DIETS. […]
(§5) The 3 week old vitamin D deficient mice were randomly assigned to various treatment groups as described below. […] Symptoms of hypercalcemia monitored daily included overall health and weight loss. […]
SERUM MEASUREMENTS. […] Serum was collected every 2 weeks and serum calcium measured (normal for mice is 2.00-2.75 mmol/L). Vitamin D deficiency was also monitored by serum calcium analysis (serum calcium less then 1.75 mmol/L). […] Red blood cells were counted using a hemocytometer.
(§6) IBD SEVERITY. Mortality associated with the development of diarrhea was recorded in IL-10 KO and WT mice. […] Four or more paraffin sections (4 microns) from each mouse were scored using the exact procedure described by Kuhns et. al (1993). The sections were scored blindly on a scale of 0 to 5 for inflammation. […]

[3] = test system: IL-10 KO mice; test: Short term (2 weeks, 0.2 μg/d) 1,25(OH)2D3 treatment of IL-10 KO mice started at first IBD symptoms
From the text: as §1, §2, §3
In the 3rd experimental design 1,25(OH)2D3 treatment was started at the first signs of IBD symptoms (diarrhea, 7 weeks of age). Seven week old vitamin D deficient mice were split into 2 groups. One group was maintained vitamin D deficient and the other group was supplemented with 0.2 μg/d 1,25(OH)2D3. The mice were treated for 2 weeks and the 9 week old mice were sacrificed.
as §4, with “The jejunum of the SI was saved in 100 g/L formalin in phosphate buffered saline solution and sent to the Penn State Diagnostic Laboratory for sectioning and staining with hematoxyalin and eosin.” left out

[4] = test system: IL-10 KO mice; test: Mortality and growth of IL-10 KO mice fed cholecalciferol (vitamin D sufficient) from weaning
From the text: as §1
DIETS. From a single pool of breeding females fed commercial mouse diet (#5105 Ralston Purina Co.), females in the second week of gestation were selected and randomly distributed into two groups. Starting pregnant dams on vitamin D deficient diet ensured that by 5 weeks of age the weanlings were vitamin D deficient (Cantorna et al. 1996). […]
as §5, §6

[5] = test system: IL-10 KO mice; test: Food restriction experiment, IL-10 KO mice on cholecalciferol diet (+D restricted); conditions: mean ± SEM
From the text: as §1, §2
as §3, with “In order to monitor vitamin D toxicity, 1,25(OH)2D3 supplemented mice were observed daily for signs of hypercalcemia.” left out, “loss. […]” for “loss.”
as §6

[6] = 1,25(OH)2D3 supplemented IL-10 KO and WT mice, data not shown
[7] = 0.2 μg/d 1,25(OH)2D3 for 2 weeks from 7 weeks of age, mean ± SEM
[8] = treatment for as little as 2 weeks
[9] = 5.0 μg/d cholecalciferol for 4 weeks

| SMILES | Erythrocyte numbers [1, 6] | Hemoglobin levels [1, 6] | Weight ([1]; IL-10 KO mice, 0.005 μg/day 1,25(OH)2D3 for 4 weeks, 9 weeks of age, mean ± SEM) [g] | Serum Calcium ([1]; IL-10 KO mice, 0.005 μg/day 1,25(OH)2D3 for 4 weeks, mean ± SEM) [mmol/L] | Histology Score ([1]; IL-10 KO mice, small intestine (jejunum) inflammation, scale 0 to 5, 0.005 μg/day for 4 weeks, mean ± SEM) | Serum Calcium [2] [mmol/L] | Small Intestine g [3, 7] [g] | Small Intestine g/100 g body [3, 7] [g/100 g body] | IBD symptoms [3, 8] | Inflammation in the small intestine [3, 8] | Diarrhea and mortality ([4]; 5.0 μg cholecalciferol/d from weaning (FIG. 1)) | Growth (body weight curve) ([4]; 5.0 μg cholecalciferol/d from weaning, compared to vitamin D deficient IL-10 KO mice (FIG. 2)) | Weight ([5]; 5.0 μg/d cholecalciferol for 4 weeks from 5 weeks of age) [g] | Small Intestine g [5, 9] [g] | Small Intestine g/100 g body [5, 9] [g/100 g body] |
| --- | --- | --- | --- | --- | --- | --- | --- | --- | --- | --- | --- | --- | --- | --- | --- |
| C=C1/C(=C\C=C2/CCC[C@]3(C)[C@@H]([C@H](C)CCCC(C)(C)O)CC[C@@H]23)C[C@@H](O)C[C@@H]1O [1,25(OH)2D3, 1,25-dihydroxycholecalciferol] | normal and not different | normal and not different | 20.9 ± 0.8 | 3.00 ± 0.30 | 1.7 ± 0.4 | 2.72 ± 0.25 | 1.08 ± 0.05 | 5.4 ± 0.3 | ameliorated IBD symptoms | reduced the inflammation | – | – | – | – | – |
| C=C1CC[C@H](O)C/C1=C/C=C1\CCC[C@]2(C)[C@@H]([C@H](C)CCCC(C)C)CC[C@@H]12 [cholecalciferol] | – | – | – | – | – | – | – | – | – | – | did not develop diarrhea or die | grew rapidly | 16.1 ± 1.1 | 1.00 ± 0.02 | 6.2 ± 0.3 |
